Laboratory results reported in patent publication US11337984B2, “Methods for treating, diagnosing and prognosing a haematological malignancy” (Institut de Recerca Contra La Leucèmia Josep Carreras, priority 2014, dated 2022).
“Also recorded” adds a separate entry of the source.

Tests used:
[1] = system: primary AML patient samples; assay: Myeloid differentiation markers on primary patient AML samples; assay type: cell-based, human; details: 0.1, 1 and 10 μM, 72 h
Description: FIG. 6. […] The surface expression of CD11b, CD14 and CD15 was detected by flow cytometry. […] 9 primary AML samples were analyzed in triplicates. Each symbol represents a specific AML patient.
FIG. 7. […] The surface expression of CD11b, CD14 and CD15 was detected by flow cytometry. […] 9 primary AML samples were analyzed in triplicates. Each symbol represents a specific AML patient.

[2] = system: primary AML patient cells; assay: Engraftment of ex vivo treated primary AML cells in NSG mice; set-up: species or system mouse; details: ex vivo 10 μM for 18 h; bone marrow 8 weeks after transplantation; versus vehicle
Description: FIG. 16. 5HTR antagonist treatment reduces the leukemia regeneration capacity of primary AML cells, whilst sparing healthy hematopoietic stem/progenitor cells. 1-10×10^6 primary AML patient cells or 10-14×10^4 lineage-depleted CB cells were ex vivo treated (10 μM apomorphine, 10 μM methiothepin or vehicle control) for 18 h in IMDM supplemented with 5% heat-inactivated fetal bovine serum and hematopoietic cytokines. Cells were injected IV in previously busulfan (30 mg/kg)-conditioned NSG mice and left 8 weeks untreated. Mice were sacrificed and their bones (iliac crests, femurs and tibias) were harvested and analyzed for the presence of human leukemia (upper panel) or healthy blood (lower panel) cells by flow cytometry. Four AML patient samples and three umbilical cord blood (UCB) samples were tested. *p<0.05; **p<0.01.
Leukemia-initiating cells (LIC) or LSCs are responsible for the engraftment of AML cells in xenograft mouse models and are thought to initiate and maintain the disease in humans. Primary AML patient samples were treated ex vivo with 5HTR antagonists for 18 h and transplanted into conditioned immunodeficient NSG mice. Eight weeks after transplantation, murine bone marrow was analyzed for the presence of human AML cells.

healthy blood cells = details: 0.1, 1 and 10 μM, 24 h or 72 h; healthy donor peripheral blood
[3] = system: primary haematopoietic stem/progenitor cells; assay: Viability of lineage-negative umbilical cord blood cells; details: 10 μM, 24 h
[4] = system: primary CFU-Bs from AML patients; assay: Secondary CFU replating of pretreated primary AML CFU-Bs; assay type: cell-based, human; details: primary CFUs pretreated with 10 μM, replated 14 days without drug
[5] = system: HL-60, KG-1, MonoMac-1 and Kasumi-1 AML cell lines; assay: Cell viability of AML cell lines by flow cytometry (7-AAD/Hoechst, volumetric count); assay type: cell-based, human
Description: FIG. 1. […] 10^6 HL-60, KG-1, MonoMac-1 and Kasumi-1 cells per mL in complete RPMI media were treated with 0.1, 1 and 10 μM Apomorphine for 72 h. […] Cells were stained with 7-aminoactinomycin D (7-AAD, CAS no. 7240-37-1) and Hoechst 33342 (CAS no. 23491-52-3) and analyzed by flow cytometry. […] Cell number was calculated by volumetric count. A. The mean (symbol) for each AML cell line and standard deviation (error bars) from 6 different biological replicates are represented. B. The average corresponding to the four different AML cell lines is represented. *p<0.05.
FIG. 2. […] Cell number was calculated by volumetric count. A. The mean (symbol) for each AML cell line and standard deviation (error bars) from 6 different biological replicates are represented. B. AML cell lines were treated with 10 μM Apomorphine or Methiothepin in the presence or absence of 5-CT or 5-HT. *p<0.05. Apo: apomorphine; Methio: methiothepine.
In order to test the anti-leukaemic effect of 5HTR antagonists, HL-60 (Collins, Gallo et al. Nature. 1977; 270(5635):347-9), MonoMac-1 (Steube, Teepe et al. Leuk Res. 1997; 21(4):327-35), KG-1 (Koeffler and Golde. Science. 1978; 200(4346):1153-4) and Kasumi-1 (Asou, Tashiro et al. Blood. 1991; 77(9):2031-6) AML (Acute Myeloid Leukaemia) cell lines were treated with the broad 5HTR antagonist Apomorphine (CAS no. 314-19-2) at different doses for 72 h. One million cells per mL were seeded in complete RPMI media supplemented with 10% fetal bovine serum in a 96-well plate. The concentration used for the Apomorphine treatment was 0.1, 1 and 10 μM.
The human 5HTR family is composed by 7 subtypes (from 1 to 7) of receptors […]. HL-60, KG-1, MonoMac-1 and Kasumi-1 AML cell lines were incubated with subtype-specific 5HTR antagonists: Apomorphine (type 1, 2 and 5), Methiothepin (type 1 and 2) (CAS no. 74611-28-2), Amperozide (type 2) (CAS no. 75558-90-6), GR113808 (type 4) (CAS no. 144625-51-4). 72 h after treatment, cell viability was determined by flow cytometry. Cells were stained with 7-AAD (CAS no. 7240-37-1) and Hoechst 33342 (CAS no. 23491-52-3). Viability cells were identified by 7-AAD staining exclusion and the presence of Hoechst positive stain. Cell counts were measured by volume. […] In fact, the anti-leukaemic effect was reversed in the presence of a competitive agonist such as the natural ligand 5-HT (CAS no. 153-98-0) or 5-CT (CAS no. 74885-72-6).

engrafted healthy HSCs = assay: CFU assay of engrafted healthy HSCs; assay type: cell-based; details: engrafted human cells from primary transplanted mice
Description: FIG. 17. Treatments with 5HTR antagonists reduce the leukemia regeneration capacity of primary AML samples in secondary recipient, without affecting normal hematopoiesis. Upper panel. 3-10×10^5 engrafted bone marrow cells from primary transplanted mice were injected intravenously into secondary recipients (conditioned NSG mice) and left untreated for 8 weeks. Bone marrow cells were analyzed as in FIG. 16. Frequency of human CD45 positive cells referred to control is represented. Lower panel. 50×10^3 engrafted human cells were screened for CFUs. The normalized number of CFUs obtained is represented. *p<0.05; ***p<0.005; ****p<0.0001.
In order to assay the in vivo self-renewal capacity remaining in the engrafted samples, secondary transplants were performed. Less than 35% of AML cells were detected in mice injected with apomorphine- or methiothepin-treated cells (FIG. 17).

## CN1CCc2cccc3c2[C@H]1Cc1ccc(O)c(O)c1-3 [Apomorphine, (6aR)-6-methyl-5,6,6a,7-tetrahydro-4H-dibenzo[de,g]quinoline-10,11-diol]
[1]
  myeloid markers (CD11b, CD14, CD15) on primary AML patient samples: induced the upregulation of myeloid markers; also recorded: induced myeloid differentiation
[2]
  homing and engraftment capacity of treated AML cells: less homing and engraftment capacity
Healthy blood cells
  healthy blood cell viability: remains unaffected
[3]
  viability of healthy haematopoietic stem/progenitor cells: remain unaffected
[4]
  clonogenic capacity in secondary CFUs: a reduction in the clonogenic capacity was observed
[5]; 10 μM antagonist with 5-CT or 5-HT
  anti-leukaemic effect in the presence of a competitive agonist (5-HT or 5-CT): reversed
[5]; 0.1, 1 and 10 μM, 72 h, HL-60, KG-1, MonoMac-1, Kasumi-1
  cell viability of AML cell lines: a reduction in cell viability was detected in a dose-response fashion; also recorded: reduced AML cell viability
[5]; subtype-specific 5HTR antagonists, 0.1, 1 and 10 μM, 72 h
  cell death on AML cell lines: induced cell death
Engrafted healthy HSCs
  clonogenic capacity of engrafted healthy HSCs (CFU assays): little effect
